Measured values from patent US20260007613A1, “LONG-ACTING LOW-TOXICITY NOVEL CATIONIC LIPID COMPOUNDS AND COMPOSITION THEREOF” (BEIJING YOUCAREKECHUANG PHARMACEUTICAL TECHNOLOGY CO., LTD., priority 2023, published 2026).
Where “and” joins values, the source holds several entries; their conditions need not be identical. Equal entries are not always repeated.

What was measured:
[1] = Particle size and polydispersity index (PDI) of lipid nanoparticles by dynamic light scattering; format: physicochemical; details: LNP formulation prepared from the cationic lipid, 25° C.
Experimental: The particle size and polydispersity index (PDI) were determined by dynamic light scattering using Malvern laser particle size analyzer.
10 μL of the liposome solution was weighed, diluted to 1 mL with RNase-free deionized water, and added to the sample pool. Each sample was measured in triplicate. The measurement conditions were: […] scattering angle, and 25° C.

293T cells [2] = assay: Fluorescent detection of Fluc-mRNA (cell transfection efficiency of LNP formulations); format: cell-based
Summary of the method: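 Transfection read-out: IVIS imaging after […], 24 h after adding LNPs (lipid molar ratio 49:10:39.5:1.5 cationic/neutral/structured/polymer-lipid; […] Fluc-mRNA). Adherent 293T cells were seeded overnight at 10,000 per well beforehand.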

293T cells [3] = assay: Cell survival rate determination (CCK-8); format: cell-based; details: difference of survival rates
Summary of the method: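 Readout was CCK-8 absorbance (450 nm, 1 h) taken after a 24 h exposure of overnight-adhered 293T cells (10,000 per well, 96-well) to Lipofectamine 3000 or to LNPs carrying Fluc-mRNA, lipid molar ratio 49:10:39.5:1.5 cationic/neutral/structured/polymer-conjugated.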

female BALB/C mice = assay: Live imaging in mice: protein expression of Fluc-mRNA delivered by LNP formulations; format: in vivo; details: for average radiation intensity, times that of ALC-0315: comparator ALC-0315; for average radiation intensity, times that of HHMA: comparator HHMA; for average radiation intensity, times that of SM-102: comparator SM-102; for expression of mRNA in mice, times that of YK-302: comparator YK-302; for expression amount, times that of YK-321: comparator YK-321; for average radiation intensity, times that of compound 21: comparator compound 21; for average radiation intensity, times that of compound 23: comparator compound 23
Summary of the method: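 Female BALB/C mice (4-6 weeks, 17-19 g) received LNP-formulated Fluc-mRNA […] intramuscularly. At 6 h, 24 h, 48 h and 7 d, luciferase substrate given intraperitoneally, and after 5 min average radiance measured by IVIS whole-body imaging.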

liver = assay: Distribution of liposomes in mice: protein expression in the liver (live imaging); format: in vivo; details: at 6 h
Summary of the method: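 Female BALB/C mice (4–6 weeks, 17–19 g) received LNP carrying […] Fluc-mRNA intramuscularly. At 6 h, 24 h, 48 h and 7 d, the luciferase substrate was given intraperitoneally. After 5 min of free movement, average radiance was imaged with IVIS Spectrum.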

CCCCCCC(CCCCCC)CCOC(=O)CCCCCCN(CCCCCCC(=O)OCCC(CCCCCC)CCCCCC)C[C@H](O)CN(CCO)CCO [YK-319]
PDI (%) [1]: 11.7%
Particle size (nm) [1]: 200 nm
Relative light unit (RLU) (293T cells [2]; LNP formulation of Fluc-mRNA, 96-well plate, 24 hours): 24467760 RLU
Multiples (YK-305) (293T cells [2]; RLU of YK-305 / RLU of the lipid of the line): 1.12
Multiples (YK-310) (293T cells [2]; RLU of YK-310 / RLU of the lipid of the line): 1.05
Multiples (YK-312) (293T cells [2]; RLU of YK-312 / RLU of the lipid of the line): 0.82
Multiples (YK-318) (293T cells [2]; RLU of YK-318 / RLU of the lipid of the line, Tables 5, 7, 11): 0.46
Multiples (YK-319) (293T cells [2]; RLU of YK-319 / RLU of the lipid of the line, Tables 5, 7, 11): 1.00
Ratio relative to SM-102 (293T cells [2]; RLU of the lipid / RLU of SM-102, times that of SM-102): 15.25
cell transfection efficiency, times that of ALC-0315 (293T cells [2]; comparator ALC-0315): 12.03 times
cell transfection efficiency, times that of HHMA (293T cells [2]; comparator HHMA): 12.20 times
cell transfection efficiency, times that of Lipofectamine 3000 (293T cells [2]; comparator Lipofectamine 3000): 20.63 times
cell transfection efficiency, times that of YK-009 (293T cells [2]; comparator YK-009): 4.78 times
cell transfection efficiency, times that of YK-301 (293T cells [2]; comparator YK-301): 29.04 times
cell transfection efficiency, times that of YK-302 (293T cells [2]; comparator YK-302): 880.83 times
cell transfection efficiency, times that of YK-303 (293T cells [2]; comparator YK-303): 39.07 times
cell transfection efficiency, times that of YK-304 (293T cells [2]; comparator YK-304): ~1100 times and 1182.82 times
cell transfection efficiency, times that of YK-306 (293T cells [2]; comparator YK-306): 11.14 times
cell transfection efficiency, times that of YK-307 (293T cells [2]; comparator YK-307): 5.37 times
cell transfection efficiency, times that of YK-308 (293T cells [2]; comparator YK-308): 2.22 times
cell transfection efficiency, times that of YK-309 (293T cells [2]; comparator YK-309): ~190 times and 195.16 times
cell transfection efficiency, times that of YK-311 (293T cells [2]; comparator YK-311): 12.46 times
cell transfection efficiency, times that of YK-313 (293T cells [2]; comparator YK-313): 28.24 times
cell transfection efficiency, times that of YK-314 (293T cells [2]; comparator YK-314): 44.70 times
cell transfection efficiency, times that of YK-315 (293T cells [2]; comparator YK-315): 15.42 times
cell transfection efficiency, times that of YK-316 (293T cells [2]; comparator YK-316): 5.09 times
cell transfection efficiency, times that of YK-317 (293T cells [2]; comparator YK-317): 6.79 times
cell transfection efficiency, times that of YK-320 (293T cells [2]; comparator YK-320): 9.05 times
cell transfection efficiency, times that of YK-321 (293T cells [2]; comparator YK-321): 17.43 times
cell transfection efficiency, times that of compound 21 (293T cells [2]; comparator compound 21): 17.08 times
cell transfection efficiency, times that of compound 23 (293T cells [2]; comparator compound 23): 18.04 times
cell survival rate higher than ALC-0315 (293T cells [3]; comparator ALC-0315): 24.18%
cell survival rate higher than HHMA (293T cells [3]; comparator HHMA): 8.74%
cell survival rate higher than Lipofectamine 3000 (293T cells [3]; comparator Lipofectamine 3000): 50.20%
cell survival rate higher than SM-102 (293T cells [3]; comparator SM-102): 5.76%
cell survival rate higher than YK-301 (293T cells [3]; comparator YK-301): 22.25%
cell survival rate higher than YK-302 (293T cells [3]; comparator YK-302): 58.78%
cell survival rate higher than YK-303 (293T cells [3]; comparator YK-303): 11.89%
cell survival rate higher than YK-304 (293T cells [3]; comparator YK-304): 41.05%
cell survival rate higher than YK-306 (293T cells [3]; comparator YK-306): 33.02%
cell survival rate higher than YK-307 (293T cells [3]; comparator YK-307): 14.07%
cell survival rate higher than YK-308 (293T cells [3]; comparator YK-308): 4.22%
cell survival rate higher than YK-309 (293T cells [3]; comparator YK-309): 43.60%
cell survival rate higher than YK-311 (293T cells [3]; comparator YK-311): 5.15%
cell survival rate higher than YK-313 (293T cells [3]; comparator YK-313): 6.28%
cell survival rate higher than YK-314 (293T cells [3]; comparator YK-314): 7.33%
cell survival rate higher than YK-315 (293T cells [3]; comparator YK-315): 3.93%
cell survival rate higher than YK-316 (293T cells [3]; comparator YK-316): 4.68%
cell survival rate higher than YK-317 (293T cells [3]; comparator YK-317): 16.03%
cell survival rate higher than YK-320 (293T cells [3]; comparator YK-320): 4.14%
cell survival rate higher than YK-321 (293T cells [3]; comparator YK-321): 2.87%
cell survival rate higher than compound 21 (293T cells [3]; comparator compound 21): 5.00%
cell survival rate higher than compound 23 (293T cells [3]; comparator compound 23): 3.71%
average radiation intensity, times that of ALC-0315 (female BALB/C mice; 6 h): 9.53 times
average radiation intensity, times that of HHMA (female BALB/C mice; 6 h): 12.64 times
average radiation intensity, times that of SM-102 (female BALB/C mice; 6 h): 11.74 times
expression of mRNA in mice, times that of YK-302 (female BALB/C mice; 6 h): 564.51 times
expression amount, times that of YK-321 (female BALB/C mice; 6 h): 15.96 times
average radiation intensity, times that of compound 21 (female BALB/C mice; 6 h): 13.49 times
average radiation intensity, times that of compound 23 (female BALB/C mice; 6 h): 13.96 times
average radiation intensity (female BALB/C mice; 6 h after intramuscular injection): 8230500
average radiation intensity, times that of ALC-0315 (female BALB/C mice; 24 h): 12.78 times
average radiation intensity, times that of HHMA (female BALB/C mice; 24 h): 20.29 times
average radiation intensity, times that of SM-102 (female BALB/C mice; 24 h): 20.20 times
expression of mRNA in mice, times that of YK-302 (female BALB/C mice; 24 h): 615.26 times
expression amount, times that of YK-321 (female BALB/C mice; 24 h): 24.04 times
average radiation intensity, times that of compound 21 (female BALB/C mice; 24 h): 22.16 times
average radiation intensity, times that of compound 23 (female BALB/C mice; 24 h): 23.28 times
average radiation intensity (female BALB/C mice; 24 h after intramuscular injection): 2433960
average radiation intensity, times that of ALC-0315 (female BALB/C mice; 48 h): 22.30 times
average radiation intensity, times that of HHMA (female BALB/C mice; 48 h): 27.27 times
average radiation intensity, times that of SM-102 (female BALB/C mice; 48 h): 27.27 times
expression of mRNA in mice, times that of YK-302 (female BALB/C mice; 48 h): 866.03 times
expression amount, times that of YK-321 (female BALB/C mice; 48 h): 24.28 times
average radiation intensity, times that of compound 21 (female BALB/C mice; 48 h): 28.65 times
average radiation intensity, times that of compound 23 (female BALB/C mice; 48 h): 26.80 times
average radiation intensity (female BALB/C mice; 48 h after intramuscular injection): 887680
average radiation intensity, times that of ALC-0315 (female BALB/C mice; 7 d): 14.88 times
average radiation intensity, times that of HHMA (female BALB/C mice; 7 d): 17.86 times
average radiation intensity, times that of SM-102 (female BALB/C mice; 7 d): 15.84 times
expression of mRNA in mice, times that of YK-302 (female BALB/C mice; 7 d): 273.07 times
expression amount, times that of YK-321 (female BALB/C mice; 7 d): 15.92 times
average radiation intensity, times that of compound 21 (female BALB/C mice; 7 d): 16.27 times
average radiation intensity, times that of compound 23 (female BALB/C mice; 7 d): 16.80 times
average radiation intensity (female BALB/C mice; 7 d after intramuscular injection): 104860
expression amount in the liver compared with ALC-0315 and SM-102 (liver): reduced
protein expression in the liver (liver; intramuscular injection): had protein expression in the liver
